Several values for one entry are separate records, joined by “and”; a condition that tells them apart may be missing. Identical values can stand only once. Non-standard residues stand in square brackets, D forms with d. No end group written: not given here. Tiq = 1,2,3,4-tetrahydroisoquinoline-1-carboxylic acid; Bip = N[C@@H](Cc1ccc(-c2ccccc2)cc1)C(=O)O; dDip = N[C@@H](C(=O)O)C(c1ccccc1)c1ccccc1; dIgl = N[C@@H](C(=O)O)C1Cc2ccccc2C1; Igl = N[C@H](C(=O)O)C1Cc2ccccc2C1; Tic = O=C(O)[C@@H]1Cc2ccccc2CN1; d(pGlu) = O=C1CC[C@H](C(=O)O)N1; aThr = C[C@H](O)[C@H](N)C(=O)O; code Z = not defined here
Assays:
MC1-R = target: T1, MC1-R (Mus musculus, UniProt Q01727); assay: Competitive binding assay: inhibition of 125I-NDP-α-MSH binding to membranes from B16-F10 mouse melanoma cells; conditions: Table 6; 1 μM; mean of triplicate
T1 construct: MC1-R membranes were isolated from B16—F10 mouse melanoma cells; endogenous in cells; host or cells: B16-F10 mouse melanoma cells
T1 sequence (Q01727 whole entry): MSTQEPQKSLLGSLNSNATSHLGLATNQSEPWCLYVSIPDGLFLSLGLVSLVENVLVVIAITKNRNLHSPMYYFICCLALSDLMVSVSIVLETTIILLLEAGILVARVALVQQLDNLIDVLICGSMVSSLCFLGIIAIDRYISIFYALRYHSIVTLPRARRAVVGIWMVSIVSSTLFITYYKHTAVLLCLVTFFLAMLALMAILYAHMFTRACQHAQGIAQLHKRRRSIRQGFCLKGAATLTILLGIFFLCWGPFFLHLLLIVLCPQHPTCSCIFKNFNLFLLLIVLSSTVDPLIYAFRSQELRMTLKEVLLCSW
Procedure, shortened: (§1)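 Test metallopeptides, complexed to rhenium, compete with 125I-NDP-α-MSH for receptor sites on mouse B16-F10 or human-receptor HEK-293 membranes. Specific binding is the cpm difference without and with 1 μM α-MSH, and values are percent inhibition.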

MC4-R = target: T2, MC4-R (Homo sapiens, UniProt P32245); assay: Competitive binding assay: inhibition of 125I-NDP-α-MSH binding to HEK-293 membranes with cloned human receptor subtype 4; conditions: Table 6; 1 μM; mean of triplicate
T2 construct: expressed in transfected cells; host or cells: HEK-293
T2 sequence (P32245 whole entry): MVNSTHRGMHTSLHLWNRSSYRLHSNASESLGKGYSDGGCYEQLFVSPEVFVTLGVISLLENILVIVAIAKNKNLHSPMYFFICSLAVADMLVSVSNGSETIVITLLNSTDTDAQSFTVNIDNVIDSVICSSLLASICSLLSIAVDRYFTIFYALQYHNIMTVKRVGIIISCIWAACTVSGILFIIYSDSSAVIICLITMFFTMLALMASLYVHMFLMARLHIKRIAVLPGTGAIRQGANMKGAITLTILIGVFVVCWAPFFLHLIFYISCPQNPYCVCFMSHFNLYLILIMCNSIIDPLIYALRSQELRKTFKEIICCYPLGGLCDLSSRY
Procedure, shortened: as §1

hMC5-R = target: T3, hMC5-R (Homo sapiens, UniProt P33032); assay: Competitive binding assay: inhibition of 125I-NDP-α-MSH binding to HEK-293 membranes with cloned human receptor subtype 5; conditions: Table 6; 1 μM; mean of triplicate
T3 construct: expressed in transfected cells; host or cells: HEK-293
T3 sequence (P33032 whole entry): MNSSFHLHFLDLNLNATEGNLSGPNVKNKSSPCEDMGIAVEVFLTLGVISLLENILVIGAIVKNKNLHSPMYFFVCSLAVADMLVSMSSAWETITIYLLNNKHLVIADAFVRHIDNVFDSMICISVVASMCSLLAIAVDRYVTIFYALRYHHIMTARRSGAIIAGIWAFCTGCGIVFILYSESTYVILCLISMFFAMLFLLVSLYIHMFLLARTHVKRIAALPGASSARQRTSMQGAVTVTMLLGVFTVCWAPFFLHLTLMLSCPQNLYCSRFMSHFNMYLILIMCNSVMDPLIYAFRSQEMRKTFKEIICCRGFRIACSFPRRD
Procedure, shortened: as §1

hMC2-R = target: T4, hMC2-R (Homo sapiens, UniProt P41968); assay: Competitive binding assay of additional compounds, Table 6 hMC2-R; conditions: 1 μM, mean of triplicate
T4 construct: expressed in transfected cells; host or cells: HEK-293
T4 sequence (P41968 whole entry): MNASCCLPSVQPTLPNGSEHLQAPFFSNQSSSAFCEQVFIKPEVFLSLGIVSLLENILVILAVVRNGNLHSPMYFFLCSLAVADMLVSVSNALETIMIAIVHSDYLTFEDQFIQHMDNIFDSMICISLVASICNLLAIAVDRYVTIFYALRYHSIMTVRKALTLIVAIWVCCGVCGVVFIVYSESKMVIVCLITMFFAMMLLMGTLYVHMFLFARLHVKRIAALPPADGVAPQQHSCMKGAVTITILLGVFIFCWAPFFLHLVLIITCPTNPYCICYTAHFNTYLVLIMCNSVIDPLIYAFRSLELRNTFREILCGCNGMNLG

| Substance | % Inhibition of Binding MC1-R (MC1-R) | % Inhibition of Binding hMC4-R (MC4-R) | % Inhibition of Binding hMC5-R (hMC5-R) | % Inhibition of Binding hMC2-R (hMC2-R) |
| --- | --- | --- | --- | --- |
| Ser(Bzl)-D-Nal 2′-Arg-Nal 2′-Cys-NH2 | 18% | 71% | 91% | 23% |
| Ser(Bzl)-D-Phe-Arg-Trp-Cys-NH2 ({Ser(Bzl)}-[dF]RWC-NH2; also: metal complex) | 27% | 28% | 69% | 0% |
| Tic-D-Nal-2′-Arg-Trp-Cys-NH2 | 10% | 92% | 83% | 52% |
| Tic-D-Phe(2′-Cl)-Arg-Trp-Cys-NH2 | 15% | 69% | 59% | 26% |
| Tic-D-Phe(3′-Cl)-Arg-Trp-Cys-NH2 | 18% | 62% | 76% | 41% |
| Tic-D-Phe(4′-Cl)-Arg-Cys-NH2 | 0% | 3% | 42% | 0% |
| Tic-D-Phe(4′-Cl)-Arg-Trp-Cys-NH2 | 45% | 88% | 90% | 71% |
| Tic-D-Phe(4′-Cl)-Gln-Cys-NH2 | 2% | 0% | 13% | 3% |
| Tic-D-Phe(4′-Cl)-His-Cys-NH2 | 15% | 0% | 37% | 0% |
| Tic-D-Phe(4′-Cl)-Lys-Cys-NH2 | 16% | 6% | 84% | 0% |
| Tic-D-Phe-Arg-Trp-Cys-NH2 ([Tic][dF]RWC-NH2; also: metal complex) | 14% | 64% | 69% | 25% |
| Tiq-D-Phe-Arg-Cys-Trp-NH2 (Tiq-[dF]RCW-NH2; also: metal complex) | 53% | 16% | 56% | 3% |
| Tiq-D-Phe-Arg-Trp-Cys-NH2 (Tiq-[dF]RWC-NH2; also: metal complex) | 7% | 8% | 55% | 7% |
| Z-D-Pyr-D-Phe-Arg-Trp-Cys-NH2 ({code Z}-[d(pGlu)][dF]RWC-NH2; reading uncertain; also: metal complex, printed as Z-D-Pyr-D-Phe-Arg-Trp-Cys-NH2) | 44% | 46% | 28% | 16% |
| [Bip][dF]RWC-NH2 | 0% | 19% | 51% | 0% |
| [Igl][dF]RCW-NH2 | 38% and 36% | 14% and 20% | 67% and 64% | 7% and 0% |
| [Igl][dF]RWC-NH2 | 70% | 62% | 36% | 0% |
| [dDip][dF]RCW-NH2 | 58% | 2% | 53% | 8% |
| [dDip][dF]RWC-NH2 | 23% | 34% | 8% | 0% |
| [dIgl][dF]RCW-NH2 | 49% | 15% | 39% | 12% |
| [dIgl][dF]RWC-NH2 | 2% | 8% | 63% | 0% |
| [dP][dF]RCW-NH2 | 53% | 13% | 67% | 0% |
| [dP][dF]RWC-NH2 | 1% | 18% | 35% | 0% |
| allo-Thr-D-Phe-Arg-Cys-Trp-NH2 ([aThr][dF]RCW-NH2; also: metal complex) | 66% | 0% | 31% | 5% |
